Type in all cases: cell-based
One experiment deals with CRBN^−/− NCI-H929 cells. Kind of experiment: Cell apoptosis assay, CRBN knockout cells. Here is the method:
[…] NCI-H929 and MV-4-11 cells were seeded at a density of 1 × 10^6 cells/well in 6-well tissue culture-treated plates. […] On day 7, GFP-positive cells were sorted as single cells into 96-well plates. Isolated single-cell clones were screened via western blot analysis, using wild-type NCI-H929 or MV-4-11 cells as positive controls.
Cells (NCI-H929 and MV-4-11) were seeded at a density of 1 × 10^6 cells per well into 6-well dishes. […] Apoptosis was assessed using an Annexin V-FITC kit (#ab14085; Abcam, MA, USA) on a FACS Calibur Flow Cytometer (Becton Dickinson, Franklin Lakes, NJ, USA). […] Finally, the samples were analyzed using a FACS Calibur Flow Cytometer.

The target of another experiment is IKZF2 (Homo sapiens, UniProt Q9UKS7). Put plainly: Immunoblot analysis of endogenous protein. On the set-up: endogenous in cells; host or cells: NCI-H929 and MV-4-11. As to conditions: NCI-H929 and MV-4-11 cells. As for the experimental part:
Cells (NCI-H929 and MV-4-11) were plated into 6-well plates. They were then treated with different concentrations (0, 0.01, 0.1, 1, 10 μM) of the compounds (MGD-A7, MGD-C9) or the designated time periods. Afterward, the cells were washed with phosphate-buffered saline (PBS, pH = 7.2–7.4, 1×). Next, they were lysed using RIPA buffer (#R0278-500ML, Sigma-Aldrich, MO, USA), and the cell lysates were precisely measured. Following this, the total protein lysates underwent 10% sodium dodecyl sulfate-polyacrylamide gel electrophoresis (SDS-PAGE). This method efficiently separated the proteins based on their molecular weights. Subsequently, the separated proteins were transferred onto a nitrocellulose membrane (#HATF00010, […], Madison, WI, USA). The membranes were then successively incubated with the indicated primary antibodies. […] The chemiluminescent signal was detected, and membrane images were captured with an Imaging system (Bio-Rad, Hercules, CA, USA). ImageJ analysis software (V1.8.0.112, National Institutes of Health, NIH, Bethesda, MD, USA) was employed to analyze the intensity of protein bands, aiming to quantify the relative expression levels of the target proteins. The half-maximal degradation concentration (DC50) value, which indicates the concentrations of test compounds showing 50% protein degradation efficacy, was calculated using GraphPad Prism 8.0.

The test system of a further experiment is TMD8. Put plainly: Cell viability (CCK-8) assay. As to conditions: Homo sapiens, TMD8; DLBCL, 96 h; read-out: IC50 (μM) TMD8. As for the experimental part:
(§1) The plated at a density of 15,000 cells per well, and each well contained 100 µL of medium. Subsequently, different compounds (MGD-AX, MGD-BX, MGD-CX) were added to each well. […] To evaluate the antiproliferative effects of these compounds, the Cell Counting Kit-8 (CCK-8, #CX007, Epizyme, Shanghai, China) was used. All procedures were carried out in strict accordance with the manufacturer’s instructions (Dojindo Laboratories, Mamoto Ken, Japan).

Another experiment has as its system MUTZ-1. Put plainly: Cell viability (CCK-8) assay. As to conditions: AML, 96 h; read-out: IC50 (μM) MUTZ-1. As for the experimental part: as §1
The next experiment relates to Ocl-Ly3. Kind of experiment: Cell viability (CCK-8) assay. As to conditions: for IC50: 96 h, CCK-8. Here is the method: as §1
A further experiment concerns SU-DHL-4. Put plainly: Cell viability (CCK-8) assay. As to conditions: Homo sapiens, SU-DHL-4; DLBCL, 96 h; read-out: IC50 (μM) SU-DHL-4. As for the experimental part:
as §1

Another experiment has as its system KG-1. Put plainly: Cell viability (CCK-8) assay. As to conditions: Homo sapiens, KG-1; AML, 96 h; read-out: IC50 (μM) KG-1. As for the experimental part:
as §1

The subject of the next experiment is MOLM-13. Put plainly: Cell viability (CCK-8) assay. As to conditions: Homo sapiens, MOLM-13; AML, 96 h; read-out: IC50 (μM) MOLM-13. Here is the method:
as §1

For the next experiment, the system named is RPMI-8226. Put plainly: Cell viability (CCK-8) assay. As to conditions: Homo sapiens, RPMI-8226; MM, 96 h; read-out: IC50 (μM) RPMI-8226. Here is the method:
as §1

In another experiment the test system is U937. Kind of experiment: Cell viability (CCK-8) assay. As to conditions: Homo sapiens, U-937; AML, 96 h; read-out: IC50 (μM) U937. Here is the method:
as §1

Experiment [1] has as its system control vector NCI-H929 cells. Put plainly: Cell apoptosis assay, control vector cells. Here is the method: […] NCI-H929 and MV-4-11 cells were seeded at a density of 1 × 10^6 cells/well in 6-well tissue culture-treated plates. According to the manufacturer’s protocol (Santa Cruz Biotechnology, Inc, Dallas, TX, USA), CRBN CRISPR/Cas9 knockout Plasmid (#sc-412142), CRBN HDR plasmid (#sc-412142-HDR), UltraCruz® Transfection Reagent (#sc-395739) were pre-mixed in Plasmid Transfection Medium (#sc-108062) at a 1:1:2 mass ratio, and cells were transiently transfected in a 37°C, 5% CO2 incubator. After 72 h of infection, the medium was replaced with complete medium containing 3 μg/mL puromycin for 5–7 days. On day 7, GFP-positive cells were sorted as single cells into 96-well plates. Isolated single-cell clones were screened via western blot analysis, using wild-type NCI-H929 or MV-4-11 cells as positive controls.
(§2) Cells (NCI-H929 and MV-4-11) were seeded at a density of 1 × 10^6 cells per well into 6-well dishes. […] Apoptosis was assessed using an Annexin V-FITC kit (#ab14085; Abcam, MA, USA) on a FACS Calibur Flow Cytometer (Becton Dickinson, Franklin Lakes, NJ, USA). For cell cycle analysis, cells were fixed in 75% ethanol (−20°C/overnight), washed with PBS (pH = 7.2–7.4, 1×), treated with RNase A (0.2 mg/mL, 37°C/30 min), stained with PI (10 μg/mL), and analyzed on the same instrument. Finally, the samples were analyzed using a FACS Calibur Flow Cytometer.

The test system of a further experiment is MV-4-11. Kind of experiment: Cell apoptosis assay (Annexin V flow cytometry). As for the experimental part: as §2
(A flow cytometer gives signals particle by particle.)

For a further experiment, the system named is NCI-H929. Kind of experiment: Cell apoptosis assay (Annexin V flow cytometry). As to conditions: NCI-H929, 1 and 10 µM. Here is the method:
as §2

As a reminder, the IC50 is the point on the concentration scale where inhibition reaches its midpoint.

Sequence of IKZF2 (Q96SW2 whole entry partner): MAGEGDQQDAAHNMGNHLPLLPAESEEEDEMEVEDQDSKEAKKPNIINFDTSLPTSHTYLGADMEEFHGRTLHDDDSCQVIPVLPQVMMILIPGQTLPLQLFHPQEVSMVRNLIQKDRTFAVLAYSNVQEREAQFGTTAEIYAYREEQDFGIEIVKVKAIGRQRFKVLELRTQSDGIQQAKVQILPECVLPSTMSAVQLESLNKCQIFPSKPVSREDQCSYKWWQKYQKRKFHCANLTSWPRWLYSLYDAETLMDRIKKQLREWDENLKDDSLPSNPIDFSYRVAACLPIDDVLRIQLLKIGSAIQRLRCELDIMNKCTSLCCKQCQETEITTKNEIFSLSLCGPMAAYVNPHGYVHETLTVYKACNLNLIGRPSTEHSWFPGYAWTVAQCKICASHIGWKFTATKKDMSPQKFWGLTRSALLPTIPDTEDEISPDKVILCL
Sequence of IKZF2 (Q16531 whole entry partner): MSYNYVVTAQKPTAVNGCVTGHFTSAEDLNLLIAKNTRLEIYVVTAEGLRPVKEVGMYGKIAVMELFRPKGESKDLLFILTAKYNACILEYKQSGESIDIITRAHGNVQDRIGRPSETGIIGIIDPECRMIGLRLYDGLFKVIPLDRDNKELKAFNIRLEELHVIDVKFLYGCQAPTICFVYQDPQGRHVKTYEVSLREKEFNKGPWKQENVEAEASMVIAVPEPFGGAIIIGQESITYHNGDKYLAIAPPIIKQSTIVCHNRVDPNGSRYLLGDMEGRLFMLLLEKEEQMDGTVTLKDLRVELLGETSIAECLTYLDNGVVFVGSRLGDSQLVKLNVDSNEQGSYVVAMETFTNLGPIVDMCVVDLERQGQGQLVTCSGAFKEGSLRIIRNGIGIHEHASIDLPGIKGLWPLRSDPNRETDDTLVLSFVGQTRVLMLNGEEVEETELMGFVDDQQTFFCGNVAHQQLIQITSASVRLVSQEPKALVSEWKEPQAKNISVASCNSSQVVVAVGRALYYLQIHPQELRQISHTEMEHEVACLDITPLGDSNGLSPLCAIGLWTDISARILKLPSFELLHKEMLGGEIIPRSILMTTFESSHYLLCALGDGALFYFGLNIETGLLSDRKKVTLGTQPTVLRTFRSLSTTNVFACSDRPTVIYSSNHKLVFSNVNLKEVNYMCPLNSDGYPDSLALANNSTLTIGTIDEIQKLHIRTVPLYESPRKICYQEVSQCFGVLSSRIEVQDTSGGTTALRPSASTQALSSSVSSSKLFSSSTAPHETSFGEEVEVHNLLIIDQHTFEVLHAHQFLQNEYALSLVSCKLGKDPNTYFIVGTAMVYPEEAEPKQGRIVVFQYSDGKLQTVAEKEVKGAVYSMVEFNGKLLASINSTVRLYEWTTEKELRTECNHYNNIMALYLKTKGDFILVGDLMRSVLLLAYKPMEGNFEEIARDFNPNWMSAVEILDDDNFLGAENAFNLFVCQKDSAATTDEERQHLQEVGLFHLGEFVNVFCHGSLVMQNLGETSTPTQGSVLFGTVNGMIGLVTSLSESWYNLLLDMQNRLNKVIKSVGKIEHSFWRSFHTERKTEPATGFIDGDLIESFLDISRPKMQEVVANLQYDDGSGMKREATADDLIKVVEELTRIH
Sequence of IKZF2 (Q9UKS7 whole entry): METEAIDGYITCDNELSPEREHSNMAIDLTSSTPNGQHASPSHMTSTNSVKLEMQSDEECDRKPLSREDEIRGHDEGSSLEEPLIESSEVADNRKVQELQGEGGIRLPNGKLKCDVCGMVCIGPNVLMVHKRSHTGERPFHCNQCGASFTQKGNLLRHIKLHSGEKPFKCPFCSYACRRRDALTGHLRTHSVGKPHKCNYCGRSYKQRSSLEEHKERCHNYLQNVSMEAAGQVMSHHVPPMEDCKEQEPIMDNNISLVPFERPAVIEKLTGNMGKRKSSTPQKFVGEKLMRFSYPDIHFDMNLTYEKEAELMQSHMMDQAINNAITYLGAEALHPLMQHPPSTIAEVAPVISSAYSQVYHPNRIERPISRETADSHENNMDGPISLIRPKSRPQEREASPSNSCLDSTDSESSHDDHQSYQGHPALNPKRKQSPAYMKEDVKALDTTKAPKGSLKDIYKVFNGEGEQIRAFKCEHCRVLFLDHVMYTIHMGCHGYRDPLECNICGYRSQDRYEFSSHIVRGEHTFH

Consider `CN1CCN(Cc2cccc(C(=O)NC3CCC(=O)NC3=O)c2)CC1` (centres unmarked) [MGD-A7, N-(2,6-dioxopiperidin-3-yl)-3-((4-methylpiperazin-1-yl)methyl)benzamide], for which the “apoptosis (in words)” value is on record as “neither compound elicited apoptosis” in the experiment on CRBN^−/− NCI-H929 cells, “induced significant apoptosis” in experiment [1] and “significantly induced apoptosis” in the experiment on NCI-H929. Further, the “degradation on IKZF2” value on IKZF2 is reported as “minimal degradation”. In addition, the 50% inhibitory concentration (IC50) was determined as 6.77 µM with TMD8; 13.2 µM with MUTZ-1; 2.32 ± 0.22 µM in the experiment with Ocl-Ly3; 10.3 µM in the experiment on SU-DHL-4; 1.24 µM in the experiment with KG-1; 19.3 µM in the experiment on MOLM-13. Further, the IC50 in the experiment on RPMI-8226 was determined as 2.11 µM; in the experiment on U937, 3.83 µM. Further, the apoptosis rate turned out to be 22.5% with MV-4-11 (MV-4-11, 1 µM) and 36.6% in the experiment with MV-4-11 (MV-4-11, 10 µM).

In the case of `CN1CCN(Cc2cccc(C(=O)NC3CCC(=O)NC3=O)c2F)C(=O)C1` (centres unmarked) [MGD-C9, N-(2,6-dioxopiperidin-3-yl)-2-fluoro-3-((4-methyl-2-oxopiperazin-1-yl)methyl)benzamide], the “apoptosis (in words)” value in the experiment on CRBN^−/− NCI-H929 cells is reported as “neither compound elicited apoptosis”; in experiment [1], “induced significant apoptosis”; in the experiment on NCI-H929, “significantly induced apoptosis”. Also, the “degradation on IKZF2” value on IKZF2 is “minimal degradation”. For the same compound, the IC50 worked out at 5.03 µM in the experiment on TMD8; 10.5 µM in the experiment on MUTZ-1; 0.81 ± 0.09 µM in the experiment on Ocl-Ly3; 7.37 µM with SU-DHL-4; 0.33 µM with KG-1; 9.11 µM with MOLM-13. Also, the IC50 worked out at 1.23 µM in the experiment with RPMI-8226 and 1.24 µM in the experiment with U937. Moreover, the “times stronger antiproliferative activity than avadomide” value in the experiment on Ocl-Ly3 (Ocl-Ly3 cells) is “approximately 20 times”. For the same compound, the apoptosis rate turned out to be 26.0% in the experiment on MV-4-11 (MV-4-11, 1 µM) and 40.7% in the experiment on MV-4-11 (MV-4-11, 10 µM).

Source of the values: PMC12494099, “Discovery and Characterization of Novel IKZF1/3 Glue Degraders against Multiple Hematological Cancer Cell Lines” (Oncology Research, 2025).
